Where a name gives a salt, the structure may show the parent alone. Read-outs that look alike come from different tables or passages of the source.
Test: Solubility as a function of pH in buffers without and with 15% HPBCD
Format: physicochemical
Details: thermodynamic from solid
Experimental: Buffers were prepared to cover a pH range of 2 to 7. Approximately 5 to 10 milligrams of drug was weighed into an HPLC vial to which 1.00 mL of the appropriate buffer was added. The solutions were vortexed briefly and were then shaken for five days on an orbital shaker. The prolonged shaking was carried out because slow equilibration had been observed during the initial formulation studies with different salt forms of MN-029.
Buffers with 15% HPBCD were prepared from the previous buffers. One and a half grams of HPBCD was weighed into each of several 10 mL volumetric flasks. HPBCD was dissolved in and diluted to volume with the appropriate buffer. 15 to 20 milligrams of MN-029 di-hydrochloride was weighed out into an tared HPLC vial. To the di-hydrochloride salt was added 1.00 mL of each buffer and the solution was vortexed briefly to dissolve the salt. The solutions were placed on an orbital shaker for five days. Solubility results are shown in Table 10, and the pH solubility profile for the drug in the absence of HPBCD is shown in FIG. 8.

solubility at 5 days (aqueous buffer with 15% HPBCD, aqueous with cosolvent or surfactant or cyclodextrin, pH 2 to pH 6.9, in the presence of 15% HPBCD, read-out: solubility across the tested pH range): > 20000 µg/mL
solubility at 5 days (aqueous buffer, pH 2, aqueous buffer, Without HPBCD, buffer pH 2.0, final pH 2.10, five days shaking, read-out: MN-029 Solubility): ~6000 µg/mL
SMILES: COC(=O)Nc1nc2ccc(Sc3ccc(NC(=O)[C@H](C)N)cc3)cc2[nH]1 [MN-029 di-hydrochloride, carbamic acid N-[6-[[4-[[(2S)-2-amino-1-oxopropyl]amino]phenyl]thio]-1H-benzimidazol-2-yl]-methyl ester di-hydrochloride]
